Assay results: paper PMC11882969 (Nature Communications, 2025)
Several values for one entry are separate records, joined by “and”; a condition that tells them apart may be missing. Equal entries are not always repeated. Where two headings read alike, the source gives them in different places.

Key:
hCB1 = hCB1 (Homo sapiens, UniProt P21554); experiment: bioSensAll ebBRET signaling profiling, hCB1; type: cell-based; parameters: host or cells: HEK293SL cells, transient PEI transfection; conditions: for RE, relative efficacy: vs CP-55,940; for EC50: read-out: EC50 [95% CI]; for Emax: normalized to CP-55,940
CB1 (rCB1) = CB1 (rCB1) (Rattus norvegicus, UniProt P20272); experiment: Radioligand competition binding, [3H]-CP-55,940, rat brain membranes; conditions: for radioligand binding, competition curve point (normalized): log[drug], replicate columns
Sequence of CB1 (rCB1) (P20272 whole entry): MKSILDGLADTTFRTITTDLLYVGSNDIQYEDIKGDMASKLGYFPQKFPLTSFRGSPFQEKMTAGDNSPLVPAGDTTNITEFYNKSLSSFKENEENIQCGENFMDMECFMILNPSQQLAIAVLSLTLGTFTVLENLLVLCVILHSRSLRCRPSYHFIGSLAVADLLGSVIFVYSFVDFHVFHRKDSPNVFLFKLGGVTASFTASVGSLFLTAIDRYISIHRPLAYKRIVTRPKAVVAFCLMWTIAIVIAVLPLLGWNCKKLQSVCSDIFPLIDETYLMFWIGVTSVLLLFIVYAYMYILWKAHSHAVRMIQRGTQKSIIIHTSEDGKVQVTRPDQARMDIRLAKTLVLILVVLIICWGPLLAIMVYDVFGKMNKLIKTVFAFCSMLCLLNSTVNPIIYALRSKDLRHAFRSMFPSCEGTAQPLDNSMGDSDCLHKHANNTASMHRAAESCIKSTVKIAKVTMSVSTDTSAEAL

Sequence of hCB1 (P21554 whole entry): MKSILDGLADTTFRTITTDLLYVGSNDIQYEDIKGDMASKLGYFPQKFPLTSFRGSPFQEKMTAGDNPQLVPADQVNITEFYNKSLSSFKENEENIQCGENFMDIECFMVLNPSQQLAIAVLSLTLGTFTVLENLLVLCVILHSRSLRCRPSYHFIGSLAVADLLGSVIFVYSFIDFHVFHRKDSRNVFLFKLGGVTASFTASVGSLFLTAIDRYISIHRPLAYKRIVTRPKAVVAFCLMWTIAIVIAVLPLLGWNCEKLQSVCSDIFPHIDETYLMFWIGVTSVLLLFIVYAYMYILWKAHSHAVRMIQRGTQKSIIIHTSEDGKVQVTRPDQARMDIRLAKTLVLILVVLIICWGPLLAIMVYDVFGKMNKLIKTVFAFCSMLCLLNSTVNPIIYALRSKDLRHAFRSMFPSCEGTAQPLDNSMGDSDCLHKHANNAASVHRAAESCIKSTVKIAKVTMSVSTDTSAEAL

COC(=O)[C@@](C)(NC(=O)c1cc(C)n(-c2cccc(C(F)(F)F)c2)n1)c1cccs1 [‘1350]
G15 hCB1 (hCB1; Log [Compound] (M) -8.22186): 108.751 and 98.1326
Gi1 hCB1 (hCB1; Log [Compound] (M) -8.22186): 92.6788 and 89.3236 and 99.6444
Gi2 hCB1 (hCB1; Log [Compound] (M) -8.22186): 103.598 and 95.5013
GoB hCB1 (hCB1; Log [Compound] (M) -8.22186): 98.7737 and 93.6765
Gq hCB1 (hCB1; Log [Compound] (M) -8.22186): 1076
Gs hCB1 (hCB1; Log [Compound] (M) -8.22186): 6277
Gz hCB1 (hCB1; Log [Compound] (M) -8.22186): 86.1167 and 125.84
Barr2+GRK2 hCB1 (hCB1; Log [Compound] (M) -8.39794): 29.9976 and 37.6342 and 37.3728
G15 hCB1 (hCB1; Log [Compound] (M) -8.39794): 102.447 and 90.505
Gi1 hCB1 (hCB1; Log [Compound] (M) -8.39794): 89.9355 and 81.3893 and 90.8265
Gi2 hCB1 (hCB1; Log [Compound] (M) -8.39794): 93.2678 and 81.238
GoB hCB1 (hCB1; Log [Compound] (M) -8.39794): 91.7888 and 85.5166 and 90.3229
Gq hCB1 (hCB1; Log [Compound] (M) -8.39794): 1079
Gs hCB1 (hCB1; Log [Compound] (M) -8.39794): 6774
Gz hCB1 (hCB1; Log [Compound] (M) -8.39794): 90.3591 and 90.0229
G13 hCB1 (hCB1; Log [Compound] (M) -8.68787): 53.1584 and 35.4081
G15 hCB1 (hCB1; Log [Compound] (M) -8.68787): 102.996 and 87.3488
Gi1 hCB1 (hCB1; Log [Compound] (M) -8.68787): 91.5518 and 80.8983 and 96.1797
Gi2 hCB1 (hCB1; Log [Compound] (M) -8.68787): 100.616 and 73.0934
GoB hCB1 (hCB1; Log [Compound] (M) -8.68787): 87.9026 and 94.3015 and 102.463
Gq hCB1 (hCB1; Log [Compound] (M) -8.68787): 1093
Gs hCB1 (hCB1; Log [Compound] (M) -8.68787): 6188
Gz hCB1 (hCB1; Log [Compound] (M) -8.68787): 71.525 and 105.899
G13 hCB1 (hCB1; Log [Compound] (M) -9.15521): 29.8642 and 17.8839
G15 hCB1 (hCB1; Log [Compound] (M) -9.15521): 73.5984 and 77.2225
Gi1 hCB1 (hCB1; Log [Compound] (M) -9.15521): 81.1718 and 69.1157 and 80.6507
Gi2 hCB1 (hCB1; Log [Compound] (M) -9.15521): 77.4138 and 61.2639
GoB hCB1 (hCB1; Log [Compound] (M) -9.15521): 71.2656 and 63.2418 and 86.0488
Gq hCB1 (hCB1; Log [Compound] (M) -9.15521): 979
Gs hCB1 (hCB1; Log [Compound] (M) -9.15521): 6053
Gz hCB1 (hCB1; Log [Compound] (M) -9.15521): 50.0303 and 83.0974
G15 hCB1 (hCB1; Log [Compound] (M) -9.61989): 46.4936 and 49.8683
Gi1 hCB1 (hCB1; Log [Compound] (M) -9.61989): 46.5026 and 32.8966 and 52.9951
Gi2 hCB1 (hCB1; Log [Compound] (M) -9.61989): 46.1296 and 39.0463
GoB hCB1 (hCB1; Log [Compound] (M) -9.61989): 41.2683 and 36.2447 and 42.156
Gq hCB1 (hCB1; Log [Compound] (M) -9.61989): 993
Gs hCB1 (hCB1; Log [Compound] (M) -9.61989): 6331
G15 hCB1 (hCB1; Log [Compound] (M) -10.0969): 22.2784 and 20.2785
Gi2 hCB1 (hCB1; Log [Compound] (M) -10.0969): 20.3201 and 12.6408
GoB hCB1 (hCB1; Log [Compound] (M) -10.0969): 15.6017 and 12.0427 and 18.9365
Gq hCB1 (hCB1; Log [Compound] (M) -10.0969): 1040
Gs hCB1 (hCB1; Log [Compound] (M) -10.0969): 6351
G15 hCB1 (hCB1; Log [Compound] (M) -10.5529): 10.1469 and 8.811
Gq hCB1 (hCB1; Log [Compound] (M) -10.5529): 1032
Gs hCB1 (hCB1; Log [Compound] (M) -10.5529): 6578
Gq hCB1 (hCB1; Log [Compound] (M) -11.0177): 1054
Gs hCB1 (hCB1; Log [Compound] (M) -11.0177): 6308
Gq hCB1 (hCB1; Log [Compound] (M) -11.4949): 1050
Gs hCB1 (hCB1; Log [Compound] (M) -11.4949): 6446
Gq hCB1 (hCB1; Log [Compound] (M) -11.9208): 1129
Gs hCB1 (hCB1; Log [Compound] (M) -11.9208): 6648
Gq hCB1 (hCB1; Log [Compound] (M) -12.3979): 1059
Gs hCB1 (hCB1; Log [Compound] (M) -12.3979): 6648
Gq hCB1 (hCB1; Log [Compound] (M) -12.8861): 1070
Gs hCB1 (hCB1; Log [Compound] (M) -12.8861): 6918
pEC50 [95% CI] (hCB1; hCB1 G13): 9.08 [8.6 – 9.6]
RE, relative efficacy (hCB1; hCB1 G13): 1.64
RE, relative efficacy (hCB1; hCB1 G15): 1.14
pEC50 [95% CI] (hCB1; hCB1 Gi1): 9.63 [9.5 – 9.7]
RE, relative efficacy (hCB1; hCB1 Gi1): 1.98
RE, relative efficacy (hCB1; hCB1 Gi2): 1.89
RE, relative efficacy (hCB1; hCB1 GoB): 2.24
RE, relative efficacy (hCB1; hCB1 Gz): 0.77
RE, relative efficacy (hCB1; hCB1 ßarr2+GRK2): 1.16
EC50 (hCB1; hCB1 Barr2 + GRK2): 2.2 nM
EC50 (hCB1; hCB1 G13): 0.83 nM
EC50 (hCB1; hCB1 G15): 0.22 nM
EC50 (hCB1; hCB1 Gi1): 0.23 nM
EC50 (hCB1; hCB1 Gi2): 0.28 nM
EC50 (hCB1; hCB1 GoB): 0.29 nM
EC50 (hCB1; hCB1 Gz): 0.35 nM
Emax (hCB1; read-out: Emax [95% CI], hCB1 Barr2 + GRK2): 63%
Emax (hCB1; read-out: Emax [95% CI], hCB1 G13): 56%
Emax (hCB1; read-out: Emax [95% CI], hCB1 G15): 99%
Emax (hCB1; read-out: Emax [95% CI], hCB1 Gi1): 92%
Emax (hCB1; read-out: Emax [95% CI], hCB1 Gi2): 95%
Emax (hCB1; read-out: Emax [95% CI], hCB1 GoB): 98%
Emax (hCB1; read-out: Emax [95% CI], hCB1 Gz): 94%
LLE (lipophilic ligand efficiency) (CB1 (rCB1); LLE = pIC50 − clogP): 4.7
LE (ligand efficiency) (CB1 (rCB1); from rCB1 affinity): 0.41
pKi [95% CI] (CB1 (rCB1); rCB1): 9.0 [8.9 – 9.1] and 9.02 [8.9 – 9.1]
radioligand binding, competition curve point (normalized) (CB1 (rCB1); rCB1, M = -6.643): -0.744 and -7.487 and -3.298
radioligand binding, competition curve point (normalized) (CB1 (rCB1); rCB1, M = -7.357): -0.8036 and -4.1 and -0.2377
radioligand binding, competition curve point (normalized) (CB1 (rCB1); rCB1, M = -8.07): 10.2232 and 5.66 and 5.585
radioligand binding, competition curve point (normalized) (CB1 (rCB1); rCB1, M = -8.783): 48.7054 and 44.7118 and 50.1783
radioligand binding, competition curve point (normalized) (CB1 (rCB1); rCB1, M = -9.496): 85.9821 and 91.8301 and 85.5615
radioligand binding, competition curve point (normalized) (CB1 (rCB1); rCB1, M = -10.21): 99.5833 and 109.715 and 87.0469
radioligand binding, competition curve point (normalized) (CB1 (rCB1); rCB1, M = -11.923): 90.0893 and 95.7219 and 98.7077
radioligand binding, competition curve point (normalized) (CB1 (rCB1); rCB1, M = -13.636): 93.4375 and 98.1283
fold more potent than CP-55,940 (CB1 (rCB1); rCB1 binding): 3 fold
fold improvement in CB1R affinity (CB1 (rCB1); vs parent hit or analog without the change): ~50 fold
